The values below come from patent US11976019B2 (Acuitas Therapeutics, Inc., priority 2020, dated 2024).

Data set [1] in a line: Determination of pKa of formulated lipids (TNS fluorescence assay in lipid nanoparticles). The following applies: cationic lipid formulated in LNP (cationic lipid/DSPC/cholesterol/PEG-lipid 50/10/38.5/1.5 mol %); pH of half-maximal TNS fluorescence. The format is physicochemical. The method, then: As described elsewhere, the pKa of formulated cationic lipids is correlated with the effectiveness of LNPs for delivery of nucleic acids (see Jayaraman et al, Angewandte Chemie, International Edition (2012), 51(34), 8529-8533; Semple et al, Nature Biotechnology 28, 172-176 (2010)). The preferred range of pKa is ˜5 to ˜7. The pKa of each cationic lipid was determined in lipid nanoparticles using an assay based on fluorescence of 2-(p-toluidino)-6-napthalene sulfonic acid (TNS). Lipid nanoparticles comprising cationic lipid/DSPC/cholesterol/PEG-lipid (50/10/38.5/1.5 mol %) in PBS at a concentration of 0.4 mM total lipid were prepared using the in-line process as described in Example 1. TNS was prepared as a 100 μM stock solution in distilled water. Vesicles were diluted to 24 μM lipid in 2 mL of buffered solutions containing, 10 mM HEPES, 10 mM IVIES, 10 mM ammonium acetate, 130 mM NaCl, where the pH ranged from 2.5 to 11. An aliquot of the TNS solution was added to give a final concentration of 1 μM and following vortex mixing fluorescence intensity was measured at room temperature in a SLM Aminco Series 2 Luminescence Spectrophotometer using excitation and emission wavelengths of 321 nm and 445 nm. A sigmoidal best fit analysis was applied to the fluorescence data and the pKa was measured as the pH giving rise to half-maximal fluorescence intensity.

The subject of data set [2] is luciferase expression in the liver. Nature of the data set: In vivo luciferase mRNA expression rodent model (liver luciferase after tail vein injection of mRNA-LNP). On the set-up: species or system mice (C57BL/6 or CD-1). The following applies: liver 4 hours after administration, FLuc mRNA LNP; for Liver Luc @ 1.0 mg/kg: 1.0 mg mRNA/kg. The method, then: Lipid nanoparticles were prepared and tested according to the general procedures described in PCT Pub. Nos. WO 2015/199952 and WO 2017/004143, the full disclosures of which are incorporated herein by reference. Briefly, cationic lipid, DSPC, cholesterol and PEG-lipid were solubilized in ethanol at a molar ratio of about 50:10:38.5:1.5 or about 47.5:10:40.8:1.7. Lipid nanoparticles (LNP) were prepared at a total lipid to mRNA weight ratio of approximately 10:1 to 30:1. The mRNA is diluted to 0.2 mg/mL in 10 to 50 mM citrate or acetate buffer, pH 4. Syringe pumps were used to mix the ethanolic lipid solution with the mRNA aqueous solution at a ratio of about 1:5 to 1:3 (vol/vol) with total flow rates above 15 mL/min. The ethanol was then removed and the external buffer replaced with PBS by dialysis. Finally, the lipid nanoparticles were filtered through a 0.2 μm pore sterile filter. Lipid nanoparticle particle size was approximately 55-95 nm diameter, and in some instances approximately 70-90 nm diameter as determined by quasi-elastic light scattering using a Malvern Zetasizer Nano ZS (Malvern, UK).
Studies were performed in 6-8 week old female C57BL/6 mice (Charles River) or 8-10 week old CD-1 (Harlan) mice (Charles River) according to guidelines established by an institutional animal care committee (ACC) and the Canadian Council on Animal Care (CCAC). Varying doses of mRNA-lipid nanoparticle were systemically administered by tail vein injection and animals euthanized at a specific time point (e.g., 4 hours) post-administration. Liver and spleen were collected in pre-weighed tubes, weights determined, immediately snap frozen in liquid nitrogen and stored at −80° C. until processing for analysis.
For liver, approximately 50 mg was dissected for analyses in a 2 mL FastPrep tubes (MP Biomedicals, Solon Ohio). ¼″ ceramic sphere (MP Biomedicals) is added to each tube and 500 μL of Glo Lysis Buffer—GLB (Promega, Madison Wis.) equilibrated to room temperature is added to liver tissue. Liver tissues were homogenized with the FastPrep24 instrument (MP Biomedicals) at 2×6.0 m/s for 15 seconds. Homogenate was incubated at room temperature for 5 minutes prior to a 1:4 dilution in GLB and assessed using SteadyGlo Luciferase assay system (Promega). Specifically, 50 μL of diluted tissue homogenate was reacted with 50 μL of SteadyGlo substrate, shaken for 10 seconds followed by 5 minute incubation and then quantitated using a CentroXS^3 LB 960 luminometer (Berthold Technologies, Germany). The amount of protein assayed was determined by using the BCA protein assay kit (Pierce, Rockford Ill.). Relative luminescence units (RLU) were then normalized to total μg protein assayed. To convert RLU to ng luciferase a standard curve was generated with QuantiLum Recombinant Luciferase (Promega).
The FLuc mRNA (L-6107 or L-7202) from Trilink Biotechnologies will express a luciferase protein, originally isolated from the firefly, Photinus pyralis. FLuc is commonly used in mammalian cell culture to measure both gene expression and cell viability. It emits bioluminescence in the presence of the substrate, luciferin. This capped and poly-adenylated mRNA was fully substituted with respect to uridine and/or cytidine nucleosides.
Representative compounds of the disclosure shown in Table 2 were formulated using the following molar ratio: 50% cationic lipid/10% distearoylphosphatidylcholine (DSPC)/38.5% Cholesterol/1.5% PEG lipid 2-[2-(ω-methoxy(polyethyleneglycol2000)ethoxy]-N,N-ditetradecylacetamide) or 47.5% cationic lipid/10% DSPC/40.7% Cholesterol/1.8% PEG lipid. Relative activity was determined by measuring luciferase expression in the liver 4 hours following administration via tail vein injection as described in Example 1. The activity was compared at a dose of 1.0 or 0.5 mg mRNA/kg and expressed as ng luciferase/g liver measured 4 hours after administration, as described in Example 1. Compound numbers in Table 2 refer to the compound numbers of Table 1.

Data set [3] shares this test system. The data set is described as above. Also noted: species or system mice (C57BL/6 or CD-1). Conditions: liver 4 hours after administration, FLuc mRNA LNP.

Marks after values point to notes of the source that are not given here.

In general, pKa refers to the negative logarithm of the acid dissociation constant. A higher pKa goes with a group that holds its proton tightly. Turning to `CCCCCCCCOC(=O)CCN(CCCCN(C)C)C(CCCCCCCCC(=O)OCC(CCCC)CCCCCC)CCCCCCCCC(=O)OCC(CCCC)CCCCCC` (centres unmarked) [Compound I-1], the pKa in data set [1] came out at 6.11. Further, in data set [2], the “Liver Luc @ 1.0 mg/kg” value was 24031 ± 4777 ng luc/g liver.
With `CCCCCCCCOC(=O)CCN(CCCCCN(C)C)C(CCCCCCCCC(=O)OCC(CCCC)CCCCCC)CCCCCCCCC(=O)OCC(CCCC)CCCCCC` (centres unmarked) [Compound I-2, bis(2-butyloctyl) 10-((5-(dimethylamino)pentyl)(3-(octyloxy)-3-oxopropyl)amino)nonadecanedioate], the pKa in data set [1] amounted to 6.67. The “Liver Luc @ 1.0 mg/kg” value in data set [2] worked out at 682 ± 147 ng luc/g liver. The “Liver Luc determined at 0.3 mg/kg” value in data set [3] is 122 ± 18 ng luc/g liver.
Turning to `CCCCCCCCOC(=O)CCN(CCCCN(C)C)C(CCCCCC(=O)OCC(CCCCCC)CCCCCCCC)CCCCCC(=O)OCC(CCCCCC)CCCCCCCC` (centres unmarked) [Compound I-4, bis(2-hexyldecyl) 7-((4-(dimethylamino)butyl)(3-(octyloxy)-3-oxopropyl)amino)tridecanedioate], in data set [1], the pKa is 6.17. Also, the “Liver Luc @ 1.0 mg/kg” value in data set [2] stood at 46932 ± 17399 ng luc/g liver.
In data set [1], `CCCCCCCCC(CCCCCC)C(=O)OCCCCCCN(CCCCN(C)C)C(CCCCCCCCC(=O)OCC(CCCC)CCCCCC)CCCCCCCCC(=O)OCC(CCCC)CCCCCC` (centres unmarked) [Compound I-5, bis(2-butyloctyl) 10-((4-(dimethylamino)butyl)(6-((2-hexyldecanoyl)oxy)hexyl)amino)nonadecanedioate] returned a pKa of 6.08. Moreover, in data set [2], the “Liver Luc @ 1.0 mg/kg” value is on record as 11720 ± 2439 ng luc/g liver.
With `CCCCCCCCCN(CCCCN(C)C)C(CCCCCCCCC(=O)OCC(CCCC)CCCCCC)CCCCCCCCC(=O)OCC(CCCC)CCCCCC` (centres unmarked) [Compound I-6], the pKa in data set [1] was found to be 6.22. Moreover, the “Liver Luc @ 1.0 mg/kg” value in data set [2] is recorded as 11290 ± 6455 ng luc/g liver. Moreover, the “Liver Luc determined at 0.3 mg/kg” value in data set [3] was found to be 4093 ± 1036 ng luc/g liver.
In data set [1], `CCCCCCC(CCCC)COC(=O)CCCCCCCCC(CCCCCCCCC(=O)OCC(CCCC)CCCCCC)N(CCCN(C)C)C(=O)CCCCC(=O)OC` (centres unmarked) [Compound I-14, bis(2-butyloctyl) 10-(N-(3-(dimethylamino)propyl)-6-methoxy-6-oxohexanamido)nonadecanedioate] registered a pKa of 6.8. In addition, the “Liver Luc determined at 0.5 mg/kg” value in data set [2] was 669 ± 575* *determined at 0.5 mg/kg ng luc/g liver.
On to `CCCCCCC(CCCC)COC(=O)CCCCCCCCC(CCCCCCCCC(=O)OCC(CCCC)CCCCCC)N(CCN(C)C)C(=O)CCCCC(=O)OC` (centres unmarked) [Compound I-15, bis(2-butyloctyl) 10-(N-(2-(dimethylamino)ethyl)-6-methoxy-6-oxohexanamido)nonadecanedioate], for which the pKa in data set [1] was 5.96. Besides, the “Liver Luc @ 1.0 mg/kg” value in data set [2] was determined as 21357 ± 15325 ng luc/g liver.
For the compound `CCCCCCCCC(CCCCCC)COC(=O)CCCCCC(CCCCCC(=O)OCC(CCCCCC)CCCCCCCC)N(CCN(C)C)C(=O)CCCCC(=O)OC` (centres unmarked) [Compound I-16, bis(2-hexyldecyl) 7-(N-(2-(dimethylamino)ethyl)-6-methoxy-6-oxohexanamido)tridecanedioate], the pKa in data set [1] amounted to 6.25. The “Liver Luc @ 1.0 mg/kg” value in data set [2] was 66763 ± 15823 ng luc/g liver.
`CCCCCCCCC(CCCCCC)COC(=O)CCCCCC(CCCCCC(=O)OCC(CCCCCC)CCCCCCCC)N(CCCN(C)C)C(=O)CCCCCCC(=O)OC` (centres unmarked) [Compound I-17, bis(2-hexyldecyl) 7-(N-(3-(dimethylamino)propyl)-8-methoxy-8-oxooctanamido)tridecanedioate] yielded a pKa in data set [1] of 6.78. The “Liver Luc @ 1.0 mg/kg” value in data set [2] stood at 26691 ± 13186 ng luc/g liver.
In the case of `CCCCCCCCC(CCCCCC)COC(=O)CCCCCC(CCCCCC(=O)OCC(CCCCCC)CCCCCCCC)N(CCN(C)C)C(=O)CCCCCCC(=O)OC` (centres unmarked) [Compound I-18, bis(2-hexyldecyl) 7-(N-(2-(dimethylamino)ethyl)-8-methoxy-8-oxooctanamido)tridecanedioate], in data set [1], the pKa is 6.02. Further, the “Liver Luc @ 1.0 mg/kg” value in data set [2] was found to be 40650 ± 11479 ng luc/g liver.
In data set [1], `CCCCCCCCC(CCCCCC)COC(=O)CCCCCC(CCCCCC(=O)OCC(CCCCCC)CCCCCCCC)N(CCCC(=O)N(CCCCCC)CCCCCC)CCN(C)C` (centres unmarked) [Compound I-19, bis(2-hexyldecyl) 7-((4-(dihexylamino)-4-oxobutyl)(2-(dimethylamino)ethyl)amino)tridecanedioate] had a pKa of 5.95. The “Liver Luc @ 1.0 mg/kg” value in data set [2] was 32706 ± 4621 ng luc/g liver.
On to `CCCCCCC(CCCC)COC(=O)CCCCCC(CCCCCC(=O)OCC(CCCC)CCCCCC)N(CCCC(=O)N(CCCCCC)CCCCCC)CCCN(C)C` (centres unmarked) [Compound I-20, bis(2-butyloctyl) 7-((4-(dihexylamino)-4-oxobutyl)(3-(dimethylamino)propyl)amino)tridecanedioate], for which, in data set [1], the pKa was 6.48. For the same compound, the “Liver Luc @ 1.0 mg/kg” value in data set [2] was 17095 ± 8181 ng luc/g liver. Further, the “Liver Luc determined at 0.3 mg/kg” value in data set [3] is recorded as 4140 ± 1117 ng luc/g liver.
The corresponding values for `CCCCCCC(CCCC)COC(=O)CCCCCCCCC(CCCCCCCCC(=O)OCC(CCCC)CCCCCC)N(CCCC(=O)N(CCCCCC)CCCCCC)CCCN(C)C` (centres unmarked) [Compound I-21, bis(2-butyloctyl) 10-((4-(dihexylamino)-4-oxobutyl)(3-(dimethylamino)propyl)amino)nonadecanedioate] are 6.4, 20223 ± 5982 ng luc/g liver and 7723 ± 1714 ng luc/g liver.
In the case of `CCCCCCCCC(CCCCCC)C(=O)OCCCCCCN(CCCCN(C)C)C(CCCCCCCCC(=O)OCC(CC)CCCC)CCCCCCCCC(=O)OCC(CC)CCCC` (centres unmarked) [Compound I-22, bis(2-ethylhexyl) 10-((4-(dimethylamino)butyl)(6-((2-hexyldecanoyl)oxy)hexyl)amino)nonadecanedioate], in data set [1], the pKa stood at 6.28. Besides, the “Liver Luc @ 1.0 mg/kg” value in data set [2] is listed as 17654 ± 8167 ng luc/g liver. For the same compound, the “Liver Luc determined at 0.3 mg/kg” value in data set [3] came out at 5291 ± 1348 ng luc/g liver.
`CCCCCCCCN(CCCCN(C)C)C(CCCCCCCCC(=O)OCC(CCCC)CCCCCC)CCCCCCCCC(=O)OCC(CCCC)CCCCCC` (centres unmarked) [Compound I-23, bis(2-butyloctyl) 10-((4-(dimethylamino)butyl)(octyl)amino)nonadecanedioate] gave a pKa in data set [1] of 6.33. For the same compound, in data set [2], the “Liver Luc determined at 0.5 mg/kg” value was 553 ± 153* *determined at 0.5 mg/kg ng luc/g liver.
